Target: T1, HIV-integrase (Human immunodeficiency virus type 1 group M subtype B, UniProt P12497)
T1 construct: Recombinant integrase (0.26 ng) was incubated with the beads
Experiment: HIV-Integrase Inhibition Activity (SPA bead integration assay with P33 labeled target DNA)
Format: biochemical
Details: in vitro activity, recombinant integrase, class symbols
Summary of the method: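 Biotinylated substrate DNA on streptavidin SPA beads loaded with recombinant integrase (90 min, 37° C), washed, then inhibitor plus 0.1 fmol P33-labeled target DNA added. Reaction stopped with 10 mM EDTA; integration measured as CPM by scintillation, giving IC50 ranks.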

| Structure (SMILES) | IC50 [nM] |
| --- | --- |
| CC(=O)N[C@H]1c2nc(C(=O)NCc3ccc(F)cc3)c(O)c(=O)n2C[C@H]2CC[C@]1(C)C2(C)C [Example 184, (7S,10R,11R)-11-(Acetylamino)-N-(4-fluorobenzyl)-3-hydroxy-10,12,12-trimethyl-4-oxo-6,7,8,9,10,11-hexahydro-4H-7,10-methanopyrimido[1,2-a]azocine-2-carboxamide] | 10 to 100 |

Same assay, conditions: recombinant integrase, class symbols; read-out: in vitro activity

| Structure (SMILES) | IC50 [nM] |
| --- | --- |
| COCCN(C)C(=O)C(=O)N(C)C12CCC(CC1)Cn1c2nc(C(=O)NCc2ccc(F)cc2)c(O)c1=O [Example 167, N-(2-((4-Fluorobenzyl)carbamoyl)-3-hydroxy-4-oxo-6,7,8,9-tetrahydro-7,10-ethanopyrimido[1,2-a]azepin-10(4H)-yl)-N′-(2-methoxyethyl)-N,N′-dimethylethanediamide] | < 10 |
| CS(=O)(=O)NC12CCC(CC1)Cn1c2nc(C(=O)NCc2ccc(F)cc2)c(O)c1=O [Example 21, N-(4-Fluorobenzyl)-3-hydroxy-10-((methylsulfonyl)amino)-4-oxo-4,6,7,8,9,10-hexahydro-7,10-ethanopyrimido[1,2-a]azepine-2-carboxamide] | < 10 |
| CN(C)C(=O)C(=O)NC12CCC(CC1)n1c2nc(C(=O)NCc2ccc(F)cc2)c(O)c1=O [Example 16, Ethanediamide, N′-[2-[[[(4-fluorophenyl)methyl]amino]carbonyl]-7,8-dihydro-3-hydroxy-4-oxo-6,9-ethano-4H-pyrido[1,2-a]pyrimidin-9(6H)-yl]-N,N-dimethyl-] | < 10 |
| CN(C)C(=O)NC12CCC(CC1)Cn1c2nc(C(=O)NCc2ccc(F)cc2)c(O)c1=O [Example 27, 10-((Dimethylcarbamoyl)amino)-N-(4-fluorobenzyl)-3-hydroxy-4-oxo-4,6,7,8,9,10-hexahydro-7,10-ethanopyrimido[1,2-a]azepine-2-carboxamide] | 10 to 100 |
| CN(C)C(=O)C(=O)NC12CCC(CC1)Cn1c2nc(C(=O)NCc2nc3ccccc3s2)c(O)c1=O [Example 360] | < 10 |
| O=C(NC12CCC(CC1)Cn1c2nc(C(=O)NCc2ccc(F)cc2)c(O)c1=O)C(=O)N1CCC(F)(F)C1 [Example 70, 10-(((3,3-Difluoro-1-pyrrolidinyl)(oxo)acetyl)amino)-N-(4-fluorobenzyl)-3-hydroxy-4-oxo-4,6,7,8,9,10-hexahydro-7,10-ethanopyrimido[1,2-a]azepine-2-carboxamide] | < 10 |
| CN(C)C(=O)C(=O)NC12CCC(CCn3c1nc(C(=O)NCc1ccc(F)cc1)c(O)c3=O)C2 (stereo not shown) [Example 199, Ethanediamide, N′-[2-[[[(4-fluorophenyl)methyl]amino]carbonyl]-7,8,9,10-tetrahydro-3-hydroxy-4-oxo-8,11-methano-4H-pyrimido[1,2-a]azocin-11(6H)-yl]-N,N-dimethyl-] | < 10 |
| CN(C)C(=O)C(=O)NC12CCC(Cn3c1nc(C(=O)NCc1ccc(F)cc1)c(O)c3=O)C2 (single isomer, unassigned) [Example 411, Ethanediamide, N′-[2-[[[(4-fluorophenyl)methyl]amino]carbonyl]-6,7,8,9-tetrahydro-3-hydroxy-4-oxo-7,11-methanopyrimido[1,2-a]azepin-10(4H)-yl]-N,N-dimethyl-] | < 10 |
| CO[C@H]1C[C@@H](C(=O)NC23CCC(CC2)Cn2c3nc(C(=O)NCc3ccc(F)c(C)c3)c(O)c2=O)N(C(=O)c2ncn(C)n2)C1 [Example 299, 7,10-Ethanopyrimido[1,2-a]azepine-2-carboxamide, N-[(4-fluoro-3-methylphenyl)methyl]-4,6,7,8,9,10-hexahydro-3-hydroxy-10-[[[(2S,4S)-4-methoxy-1-[(1-methyl-1H-1,2,4-triazol-3-yl)carbonyl]-2-pyrrolidinyl]carbonyl]amino]-4-oxo-] | < 10 |
| CN(C)C(=O)C(=O)N[C@H]1c2nc(C(=O)NCc3ccc(F)cc3)c(O)c(=O)n2C[C@H]2CC[C@]1(C)C2(C)C [Example 183, N′-((7S,10R,11R)-2-((4-Fluorobenzyl)carbamoyl)-3-hydroxy-10,12,12-trimethyl-4-oxo-6,7,8,9,10,11-hexahydro-4H-7,10-methanopyrimido[1,2-a]azocin-11-yl)-N,N-dimethylethanediamide] | 10 to 100 |
| COC(=O)C(=O)NC12CCC(CCn3c1nc(C(=O)NCc1ccc(F)cc1)c(O)c3=O)C2 (stereo not shown) [Example 210, Acetic acid, [[2-[[[(4-fluorophenyl)methyl]amino]carbonyl]-7,8,9,10-tetrahydro-3-hydroxy-4-oxo-8,1′-methano-4H-pyrimido[1,2-a]azocin-11(6H)-yl]amino]oxo-, methyl ester] | < 10 |
| CN(C)C(=O)C(=O)NC12CCC(CC1)Cn1c2nc(C(=O)NCc2cccc(-n3cncn3)c2)c(O)c1=O [Example 125, N′-(3-Hydroxy-4-oxo-2-((3-(1H-1,2,4-triazol-1-yl)benzyl)carbamoyl)-6,7,8,9-tetrahydro-7,10-ethanopyrimido[1,2-a]azepin-10(4H)-yl)-N,N-dimethylethanediamide] | < 10 |
| Cc1cc(CNC(=O)c2nc3n(c(=O)c2O)CC2CCC3(N(C)C(=O)C(=O)N(C)Cc3cn(C)nc3C)CC2)ccc1F [Example 170, N-((1,3-Dimethyl-1H-pyrazol-4-yl)methyl)-N′-(2-((4-fluoro-3-methylbenzyl)carbamoyl)-3-hydroxy-4-oxo-6,7,8,9-tetrahydro-7,10-ethanopyrimido[1,2-a]azepin-10(4H)-yl)-N,N′-dimethylethanediamide] | < 10 |
| CN(C)C(=O)C(=O)N(C)C12CCC(CC1)Cn1c2nc(C(=O)NCc2ccc(F)c(Cl)c2)c(O)c1=O [Example 158, N-(2-((3-Chloro-4-fluorobenzyl)carbamoyl)-3-hydroxy-4-oxo-6,7,8,9-tetrahydro-7,10-ethanopyrimido[1,2-a]azepin-10(4H)-yl)-N,N′,N′-trimethylethanediamide] | < 10 |
| CO[C@H]1C[C@@H](C(=O)NC23CCC(CC2)Cn2c3nc(C(=O)NCc3ccc(F)c(C)c3)c(O)c2=O)N(C(=O)c2nnc(C)o2)C1 [Example 297, 7,10-Ethanopyrimido[1,2-a]azepine-2-carboxamide, N-[(4-fluoro-3-methylphenyl)methyl]-4,6,7,8,9,10-hexahydro-3-hydroxy-10-[[[(2S,4S)-4-methoxy-1-[(5-methyl-1,3,4-oxadiazol-2-yl)carbonyl]-2-pyrrolidinyl]carbonyl]amino]-4-oxo-] | < 10 |
| COc1ccc(CNC(=O)c2nc3n(c(=O)c2O)CC2CCC3(NC(=O)C(=O)N(C)C)CC2)cc1 [Example 375] | < 10 |
| CC(NC(=O)c1nc2n(c(=O)c1O)CC1CCC2(NC(=O)C(=O)N(C)C)CC1)c1ccccc1 (stereo not shown) [Example 366] | < 10 |
| CCS(=O)(=O)N1CCCC1C(=O)NC12CCC(CC1)Cn1c2nc(C(=O)NCc2ccc(F)cc2)c(O)c1=O (stereo not shown) [Example 403] | < 10 |
| CN(C)C(=O)C(=O)NC12CCC(CC1)Cn1c2nc(C(=O)NCc2c[nH]c3ccccc23)c(O)c1=O [Example 235, Ethanediamide, N,N-dimethyl-N′-[6,7,8,9-tetrahydro-3-hydroxy-2-[[(1H-indol-3-ylmethyl)amino]carbonyl]-4-oxo-7,10-ethanopyrimido[1,2-a]azepin-10(4H)-yl]-] | < 10 |
| Cc1cc(C(=O)NC23CCC(CC2)Cn2c3nc(C(=O)NCc3ccc(F)cc3)c(O)c2=O)n(C)n1 [Example 241, 7,10-Ethanopyrimido[1,2-a]azepine-2-carboxamide, 10-[[(1,3-dimethyl-1H-pyrazol-5-yl)carbonyl]amino]-N-[(4-fluorophenyl)methyl]-4,6,7,8,9,10-hexahydro-3-hydroxy-4-oxo-] | < 10 |
| CN(C)C(=O)COC12CCC(CC1)Cn1c2nc(C(=O)NCc2ccc(F)cc2)c(O)c1=O [Example 226, 7,10-Ethanopyrimido[1,2-a]azepine-2-carboxamide, 10-[2-(dimethylamino)-2-oxoethoxy]-N-[(4-fluorophenyl)methyl]-4,6,7,8,9,10-hexahydro-3-hydroxy-4-oxo-] | 10 to 100 |
| CN(C)C(=O)C(=O)NC12CCC(CC1)Cn1c2nc(C(=O)NCc2cccs2)c(O)c1=O [Example 361] | < 10 |
| CN(C)C(=O)C(=O)NC12COC(CCn3c1nc(C(=O)NCc1ccc(F)cc1)c(O)c3=O)C2 (stereo not shown) [Example 218, N′-(2-((4-Fluorobenzyl)carbamoyl)-3-hydroxy-4-oxo-7,8-dihydro-4 H,6H-8,11-methanopyrimido[2,1-d][1,5]oxazocin-11(10H)-yl)-N,N-dimethylethanediamide] | < 10 |
| Cc1c(CN(C)C(=O)C(=O)N(C)C23CCC(CC2)Cn2c3nc(C(=O)NCc3ccc(F)cc3)c(O)c2=O)cnn1C [Example 171, N-((1,5-Dimethyl-1H-pyrazol-4-yl)methyl)-N′-(2-((4-fluorobenzyl)carbamoyl)-3-hydroxy-4-oxo-6,7,8,9-tetrahydro-7,10-ethanopyrimido[1,2-a]azepin-10(4H)-yl)-N,N′-dimethylethanediamide] | < 10 |
| O=C(NCc1ccc(F)cc1)c1nc2n(c(=O)c1O)CC1CCC2(NC(=O)C2CCOCC2)CC1 [Example 32, N-(4-Fluorobenzyl)-3-hydroxy-4-oxo-10-((tetrahydro-2H-pyran-4-ylcarbonyl)amino)-4,6,7,8,9,10-hexahydro-7,10-ethanopyrimido[1,2-a]azepine-2-carboxamide] | < 10 |
| NC12CCC(CC1)n1c2nc(C(=O)NCc2ccc(F)cc2)c(O)c1=O [Example 11, 6,9-Ethano-4H-pyrido[1,2-a]pyrimidine-2-carboxamide, 9-amino-N-[(4-fluorophenyl)methyl]-6,7,8,9-tetrahydro-3-hydroxy-4-oxo-] | 10 to 100 |
| CN(C)CCN(C)C(=O)C(=O)NC12CCC(CC1)Cn1c2nc(C(=O)NCc2ccc(F)cc2)c(O)c1=O [Example 93, N-(2-(Dimethylamino)ethyl)-N′-(2-((4-fluorobenzyl)carbamoyl)-3-hydroxy-4-oxo-6,7,8,9-tetrahydro-7,10-ethanopyrimido[1,2-a]azepin-10(4H)-yl)-N-methylethanediamide] | < 10 |

From patent publication US8129398B2 (priority 2008, dated 2012)
